The target in one assay is T1, JAK1 (Homo sapiens, UniProt P23458).
T1 construct: purchased Thermo Fisher Scientific (SelectScreen service)
The assay can be described thus: JAK1 enzyme activity assay (Thermo Fisher Selectscreen, Z-lyte). Format: biochemical. The note with it: read-out: JAK1 Inhibition IC50. How it is done:
(§1) The inhibitory potency of candidate compounds of JAK1, JAK2, and Tyk-2 was done at Thermo Fisher Scientific in their Selectscreen using a Z-lyte assay. Following are the assay details for each enzyme.
JAK1: The 2×JAK-enzyme/Tyr 06 mixture is prepared in 50 mM HEPES pH 6.5, 0.01% BRIJ-35, 10 mM MgCl2, 1 mM EGTA, 0.02% NaN3. The final 10 μL of the Kinase Reaction consists of 21.2-91.5 ng JAK1 and 2 μM Tyr 06 in 50 mM HEPES pH 7.0, 0.01% BRIJ-35, 10 mM MgCl2, 1 mM EGTA, 0.01% NaN3. After the one hour Kinase Reaction incubation, 5 μL of a 1:128 dilution of Development Reagent is added.
(§2) Data reduction for JAK1, JAK2 and TYK2 is done the same, independent of the enzyme run. In summary, background signal is defined in the absence of enzyme and uninhibited signal is defined in the presence of vehicle (2% DMSO) alone. Compounds were evaluated in an 11 point dose-response ranging from […] to 0.34 nM. IC50 values of compounds are determined using a 4 parameter logistical fit of emission ratio as a function of the concentration of compound.

A further assay deals with T2, JAK2 (Homo sapiens, UniProt O60674).
T2 construct: purchased Thermo Fisher Scientific (SelectScreen service)
Nature of the assay: JAK2 enzyme activity assay (Thermo Fisher Selectscreen, Z-lyte). Type of assay: biochemical. Conditions: read-out: JAK2 Inhibition IC50. The procedure: as §1
JAK2: The 2×JAK2/Tyr 06 mixture is prepared in 50 mM HEPES pH 7.5, 0.01% BRIJ-35, 10 mM MgCl2, 1 mM EGTA. The final 10 μL Kinase Reaction consists of 0.12-0.5 ng JAK2 and 2 μM Tyr 06 in 50 mM HEPES pH 7.5, 0.01% BRIJ-35, 10 mM MgCl2, 1 mM EGTA. After the one hour Kinase Reaction incubation, 5 μL of a 1:128 dilution of Development Reagent A is added.
as §2

Another assay has as its target T3, JAK3 (a.a. 781-1124) (Homo sapiens, UniProt P52333).
T3 construct: JAK3 (a.a. 781-1124, ThermoFisher); purchased ThermoFisher
The assay can be described thus: JAK3 enzyme activity assay (SRCtide phosphorylation, Caliper). Type of assay: biochemical. Conditions: 1 uM ATP; read-out: JAK3 Inhibition IC50. How it is done:
The activity of JAK3 (a.a. 781-1124, ThermoFisher) was quantified by measuring the phosphorylation of SRCtide (FAM-GEEPLYWSFPAKKK-NH2). Kinase reactions were run in a 384-well Greiner plate with 2% final DMSO concentration under the buffer conditions of 20 mM HEPES, pH 7.5, 10 mM MgCl2, 0.01% BSA, and 0.0005% Tween-20. The kinase reaction components were 2.5 nM JAK3, 1 μM SRCtide peptide and 1 uM ATP. Examples were tested in dose-response starting at […] (11 concentrations, 3-fold serial dilution, duplicate reactions). The reactions were incubated at room temperature for 40 minutes, then stopped by adding a 1:1 volume of 30 mM EDTA in 20 mM HEPES, pH 7.5 (15 mM EDTA final). After the reaction was stopped, the phosphorylated and unphosphorylated peptides were separated and quantified using a Caliper LC3000/EZ-Reader system and HTS Well Analyzer Software (Caliper, A PerkinElmer Company, Hopkinton, Mass.). GraFit (Erithacus Software Ltd., Horley, U.K.) was used to calculate inhibitor potency by fitting dose-response data to the 4-parameter logistical IC50 equation.

The next assay deals with T4, Tyk-2 (Homo sapiens, UniProt P29597).
T4 construct: purchased Thermo Fisher Scientific (SelectScreen service)
The assay can be described thus: Tyk-2 enzyme activity assay (Thermo Fisher Selectscreen, Z-lyte). Format: biochemical. The note with it: read-out: Tyk-2 Inhibition IC50. How it is done: as §1
TYK2: The 2×TYK2/Tyr 03 mixture is prepared in 50 mM HEPES pH 6.5, 0.01% BRIJ-35, 10 mM MgCl2, 1 mM EGTA, 0.02% NaN3. The final 10 μL Kinase Reaction consists of 3.75-15 ng TYK2 and 2 μM Tyr 03 in 50 mM HEPES pH 7.0, 0.01% BRIJ-35, 10 mM MgCl2, 1 mM EGTA, 0.01% NaN3. After the one hour KinaseReaction incubation, 5 μL of a 1:4096 dilution of Development Reagent A is added.
as §2

The subject of assay [1] is IL-2 stimulated STAT5 phosphorylation on Tyr694 (JAK1/3). The assay can be described thus: JAK1/3 cellular target modulation: IL-2 stimulated phospho-STAT5 in human PBMC. Format: cell-based. The note with it: IL-2 25 ng/ml, read-out: IL2-STAT5 IC50. The text has this: (§3) Target modulation was based upon the ability of a compound to inhibit JAK isoform specific phosphorylation of selected substrates. IL-2 stimulated STAT5 phosphorylation on Tyr694 was used to assess JAK1/3 compound selectivity. GM-CSF stimulated STAT5 phosphorylation on Tyr694 was used to assess JAK2 compound selectivity. IFNγ stimulated STAT1 phosphorylation on Tyr701 was used to assess JAK1/2 compound selectivity. IL-12 stimulated STAT4 phosphorylation on Tyr693 was used to assess JAK2/TYK2 compound selectivity. For all four assays, human PBMC from frozen stocks were thawed, pelleted, resuspended in complete media (90% RPMI, 10% heat inactivated FBS, 10 mM HEPES, 47 μM 2-ME, pen/strep) and placed in wells of a 96 well V-bottom plate at 200,000 per well in 120 μl complete media. Compounds were added as 15 μl per well of 10× working stock solutions in complete media with 1% DMSO (or medium with 1% DMSO for controls) and placed on a plate shaker in a 37° C. incubator with 5% CO2 for 1 hour with gentle shaking (setting of 3). Stimulation used the addition of soluble cytokines. For the JAK1/3 phospho-STAT5 assay, 15 μl of 10× working stock recombinant human IL-2 was added to a final concentration of 25 ng/ml. For the JAK2 phospho-STAT5 assay, 15 μl of 10× working stock recombinant human GM-CSF was added to a final concentration of 5 ng/ml. For the JAK1/2 phospho-STAT1 assay, 15 μl of 10× working stock of recombinant human IFNγ was added to a final concentration of 10 ng/ml. For the JAK2/TYK2 phospho-STAT4 assay, 15 μl of 10× working stock of recombinant human IL-12 was added to a final concentration of 1.7 ng/ml. Plates were then placed back on the plate shaker in the incubator for an additional 5, 5, 10, and 25 minutes respectively upon which the plates were removed from the incubator, sealed with a plate sealer and the cells pelleted at 400×g for 5 minutes. After pelleting, the media was removed by aspiration and the cells were lysed in assay specific cell lysis buffer. The levels of phospho-STAT5 were determined using a Phospho (Tyr694)STAT5a,b Whole Cell Lysate kit from Meso Scale Discovery. Levels of phospho-STAT1 were determined using a CST-PathScan Phospho-STAT1 (Tyr701) Sandwich ELISA kit. Levels of phospho-STAT4 were determined using a Phospho-STAT4 (Tyr693) Whole Cell Lysate kit from Meso Scale Discovery.

The test system of assay [2] is IFNγ stimulated STAT1 phosphorylation on Tyr701 (JAK1/2). The assay can be described thus: JAK1/2 cellular target modulation: IFNγ stimulated phospho-STAT1 in human PBMC. Type of assay: cell-based. The note with it: IFNγ 10 ng/ml, read-out: Infγ-STAT1 IC50.
Text: as §3

Assay [3] relates to IL-12 stimulated STAT4 phosphorylation on Tyr693 (JAK2/TYK2). Nature of the assay: JAK2/TYK2 cellular target modulation: IL-12 stimulated phospho-STAT4 in human PBMC. The note with it: IL-12 1.7 ng/ml, read-out: IL12-STAT4 IC50. Type of assay: cell-based.
Text: as §3

T1 sequence (P23458 whole entry): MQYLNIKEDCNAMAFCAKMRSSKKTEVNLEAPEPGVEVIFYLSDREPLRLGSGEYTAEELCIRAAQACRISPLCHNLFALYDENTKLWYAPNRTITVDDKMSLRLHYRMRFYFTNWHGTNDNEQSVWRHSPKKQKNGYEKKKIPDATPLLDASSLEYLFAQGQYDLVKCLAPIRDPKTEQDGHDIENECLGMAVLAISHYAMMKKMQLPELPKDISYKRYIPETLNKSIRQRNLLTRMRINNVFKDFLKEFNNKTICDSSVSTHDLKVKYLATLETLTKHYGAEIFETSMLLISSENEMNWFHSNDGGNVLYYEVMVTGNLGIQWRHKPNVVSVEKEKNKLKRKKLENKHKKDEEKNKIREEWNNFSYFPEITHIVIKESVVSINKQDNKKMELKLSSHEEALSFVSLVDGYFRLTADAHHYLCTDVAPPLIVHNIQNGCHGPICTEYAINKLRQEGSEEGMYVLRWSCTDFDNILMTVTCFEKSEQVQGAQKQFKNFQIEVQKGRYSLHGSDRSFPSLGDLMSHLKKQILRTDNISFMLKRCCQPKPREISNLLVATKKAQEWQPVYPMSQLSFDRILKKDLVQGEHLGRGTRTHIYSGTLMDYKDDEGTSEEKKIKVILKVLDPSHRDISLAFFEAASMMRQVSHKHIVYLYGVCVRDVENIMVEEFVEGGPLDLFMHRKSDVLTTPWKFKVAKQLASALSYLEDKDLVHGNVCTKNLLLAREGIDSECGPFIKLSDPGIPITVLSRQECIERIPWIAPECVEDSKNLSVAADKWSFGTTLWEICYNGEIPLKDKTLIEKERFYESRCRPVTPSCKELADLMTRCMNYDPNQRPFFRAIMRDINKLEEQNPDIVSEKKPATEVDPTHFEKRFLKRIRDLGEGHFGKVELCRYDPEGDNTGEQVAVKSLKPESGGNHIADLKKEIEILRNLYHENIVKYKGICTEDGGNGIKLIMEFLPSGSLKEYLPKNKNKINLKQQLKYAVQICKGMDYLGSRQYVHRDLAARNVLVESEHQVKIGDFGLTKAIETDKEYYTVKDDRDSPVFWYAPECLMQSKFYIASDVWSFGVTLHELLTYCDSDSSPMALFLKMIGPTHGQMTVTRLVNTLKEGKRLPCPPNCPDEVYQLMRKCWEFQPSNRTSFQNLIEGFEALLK
T4 sequence (P29597 whole entry): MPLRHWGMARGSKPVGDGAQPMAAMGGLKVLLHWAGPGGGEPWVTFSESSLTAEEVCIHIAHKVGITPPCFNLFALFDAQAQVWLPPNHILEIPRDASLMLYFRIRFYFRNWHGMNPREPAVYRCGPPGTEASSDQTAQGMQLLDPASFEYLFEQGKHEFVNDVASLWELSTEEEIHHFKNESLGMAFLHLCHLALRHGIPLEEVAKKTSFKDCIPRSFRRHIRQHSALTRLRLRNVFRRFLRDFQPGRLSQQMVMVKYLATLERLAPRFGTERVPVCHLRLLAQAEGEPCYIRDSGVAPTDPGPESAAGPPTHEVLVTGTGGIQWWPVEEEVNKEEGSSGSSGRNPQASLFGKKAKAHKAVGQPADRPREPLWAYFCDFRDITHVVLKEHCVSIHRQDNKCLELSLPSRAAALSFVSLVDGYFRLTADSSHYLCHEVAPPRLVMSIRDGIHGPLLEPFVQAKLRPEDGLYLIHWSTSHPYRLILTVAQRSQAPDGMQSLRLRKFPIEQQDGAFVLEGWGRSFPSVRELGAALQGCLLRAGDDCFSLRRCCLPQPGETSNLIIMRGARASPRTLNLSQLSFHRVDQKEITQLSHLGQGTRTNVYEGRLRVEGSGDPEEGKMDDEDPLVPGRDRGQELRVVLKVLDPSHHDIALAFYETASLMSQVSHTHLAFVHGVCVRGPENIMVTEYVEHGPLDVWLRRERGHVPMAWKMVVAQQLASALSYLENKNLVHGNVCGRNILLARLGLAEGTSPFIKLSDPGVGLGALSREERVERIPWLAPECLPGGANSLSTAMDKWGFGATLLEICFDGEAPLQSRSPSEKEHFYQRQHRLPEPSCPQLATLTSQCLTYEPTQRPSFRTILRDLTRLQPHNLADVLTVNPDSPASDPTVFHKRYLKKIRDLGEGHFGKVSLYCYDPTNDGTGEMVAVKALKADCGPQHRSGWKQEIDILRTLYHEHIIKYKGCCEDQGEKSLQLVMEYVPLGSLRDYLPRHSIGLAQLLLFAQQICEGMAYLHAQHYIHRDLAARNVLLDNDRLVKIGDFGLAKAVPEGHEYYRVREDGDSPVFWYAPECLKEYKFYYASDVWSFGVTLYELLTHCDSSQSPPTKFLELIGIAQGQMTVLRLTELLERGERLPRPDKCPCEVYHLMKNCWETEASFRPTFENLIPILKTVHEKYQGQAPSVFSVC
T2 sequence (O60674 whole entry): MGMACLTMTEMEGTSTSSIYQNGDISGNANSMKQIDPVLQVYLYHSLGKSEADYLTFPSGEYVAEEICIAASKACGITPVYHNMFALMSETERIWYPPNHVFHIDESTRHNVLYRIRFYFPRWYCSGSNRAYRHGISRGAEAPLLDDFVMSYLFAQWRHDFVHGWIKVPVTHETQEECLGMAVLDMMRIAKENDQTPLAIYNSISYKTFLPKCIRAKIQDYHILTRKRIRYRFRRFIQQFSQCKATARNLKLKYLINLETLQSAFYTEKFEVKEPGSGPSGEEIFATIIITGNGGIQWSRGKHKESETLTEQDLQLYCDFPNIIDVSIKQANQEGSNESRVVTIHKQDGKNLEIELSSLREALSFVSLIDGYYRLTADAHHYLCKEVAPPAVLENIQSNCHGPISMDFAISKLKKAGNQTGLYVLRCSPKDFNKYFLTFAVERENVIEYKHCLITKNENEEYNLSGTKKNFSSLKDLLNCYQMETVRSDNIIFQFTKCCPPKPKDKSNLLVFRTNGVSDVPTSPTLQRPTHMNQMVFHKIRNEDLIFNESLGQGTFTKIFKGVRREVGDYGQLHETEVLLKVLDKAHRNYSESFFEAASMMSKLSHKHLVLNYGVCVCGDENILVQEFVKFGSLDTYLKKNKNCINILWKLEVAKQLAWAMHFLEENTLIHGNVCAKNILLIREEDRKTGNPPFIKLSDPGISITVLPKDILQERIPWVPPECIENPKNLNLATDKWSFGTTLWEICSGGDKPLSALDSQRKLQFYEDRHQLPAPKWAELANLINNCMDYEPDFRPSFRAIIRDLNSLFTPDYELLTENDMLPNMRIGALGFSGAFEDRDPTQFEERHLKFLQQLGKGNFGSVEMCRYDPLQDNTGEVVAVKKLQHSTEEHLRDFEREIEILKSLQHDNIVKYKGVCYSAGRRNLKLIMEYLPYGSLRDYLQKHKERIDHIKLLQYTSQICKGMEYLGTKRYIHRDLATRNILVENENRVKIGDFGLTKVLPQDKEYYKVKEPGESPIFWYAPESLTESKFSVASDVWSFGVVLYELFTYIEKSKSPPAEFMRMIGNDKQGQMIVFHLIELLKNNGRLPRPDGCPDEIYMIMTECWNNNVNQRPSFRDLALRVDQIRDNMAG
T3 sequence (P52333 781-1124): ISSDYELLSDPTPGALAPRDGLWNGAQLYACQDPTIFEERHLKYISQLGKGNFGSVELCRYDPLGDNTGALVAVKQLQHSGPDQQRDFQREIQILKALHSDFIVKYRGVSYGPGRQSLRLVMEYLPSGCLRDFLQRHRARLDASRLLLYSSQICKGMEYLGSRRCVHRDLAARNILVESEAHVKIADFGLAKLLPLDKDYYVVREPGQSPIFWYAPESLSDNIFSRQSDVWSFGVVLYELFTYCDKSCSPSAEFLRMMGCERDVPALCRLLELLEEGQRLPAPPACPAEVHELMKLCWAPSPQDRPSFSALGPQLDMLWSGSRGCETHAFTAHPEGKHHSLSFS

Consider `CCCS(=O)(=O)N[C@H]1C[C@@H](Nc2c(-c3nc(C(=O)NC)co3)cnc3[nH]ccc23)C1` [Example 71, N-methyl-2-(4-(((1s,3s)-3-(propylsulfonamido)cyclobutyl)amino)-1H-pyrrolo[2,3-b]pyridin-5-yl)oxazole-4-carboxamide], for which the IC50 on JAK1 was at most 10 nM; at JAK2 it was 10 to 100 nM; on JAK3 (a.a. 781-1124), 10 to 100 nM; on Tyk-2 it was 100 to 1000 nM; in assay [1], 100 to 1000 nM; in assay [2] it was 100 to 1000 nM. The IC50 in assay [3] was above 1000 nM.

For `N#Cc1cccc(S(=O)(=O)N[C@H]2C[C@@H](Nc3c(-c4nnco4)cnc4[nH]ccc34)C2)c1` [Example 79, N-((1s,3s)-3-((5-(1,3,4-oxadiazol-2-yl)-1H-pyrrolo[2,3-b]pyridin-4-yl)amino)cyclobutyl)-3-cyanobenzenesulfonamide], the IC50 is at most 10 nM at JAK1; at most 10 nM at JAK2; 10 to 100 nM on JAK3 (a.a. 781-1124); 10 to 100 nM at Tyk-2; 100 to 1000 nM in assay [1]; 100 to 1000 nM in assay [2]. Further, the IC50 in assay [3] was above 1000 nM.

Consider `CCCS(=O)(=O)N[C@H]1C[C@@H](Nc2c(-c3nc(C(=O)NC)cs3)cnc3[nH]ccc23)C1` [Example 72, N-methyl-2-(4-(((1s,3s)-3-(propylsulfonamido)cyclobutyl)amino)-1H-pyrrolo[2,3-b]pyridin-5-yl)thiazole-4-carboxamide], for which the IC50 was 10 to 100 nM on JAK1; 10 to 100 nM on JAK2; 10 to 100 nM at JAK3 (a.a. 781-1124); 100 to 1000 nM on Tyk-2; 100 to 1000 nM in assay [1]; above 1000 nM in assay [2]. Also, in assay [3], the half-maximal inhibitory concentration (IC50) is above 1000 nM.

`N#Cc1cccc(S(=O)(=O)N[C@H]2C[C@@H](Nc3c(-c4ncco4)cnc4[nH]ccc34)C2)c1` [Example 7, 3-cyano-N-((1s,3s)-3-((5-(oxazol-2-yl)-1H-pyrrolo[2,3-b]pyridin-4-yl)amino)cyclobutyl)benzenesulfonamide]: the IC50 was at most 10 nM on JAK1; at most 10 nM on JAK2; 10 to 100 nM at JAK3 (a.a. 781-1124); 10 to 100 nM on Tyk-2; 100 to 1000 nM in assay [1]; 100 to 1000 nM in assay [2]. For the same compound, the IC50 in assay [3] is above 1000 nM.

Consider `Cc1nnc(-c2cnc3[nH]ccc3c2N[C@H]2C[C@@H](NS(=O)(=O)c3cccc(C#N)c3)C2)o1` [Example 81, 3-cyano-N-((1s,3s)-3-((5-(5-methyl-1,3,4-oxadiazol-2-yl)-1H-pyrrolo[2,3-b]pyridin-4-yl)amino)cyclobutyl)benzenesulfonamide], for which the IC50 at JAK1 is at most 10 nM; on JAK2 it was at most 10 nM; at JAK3 (a.a. 781-1124), 10 to 100 nM; at Tyk-2, 10 to 100 nM; in assay [1], at most 100 nM; in assay [2] it was 100 to 1000 nM. In assay [3], the IC50 was above 1000 nM.

As to `Cc1nccc(-c2cnc3[nH]ccc3c2N[C@H]2C[C@@H](NS(=O)(=O)c3cc(C#N)ccn3)C2)n1` [Example 85, 4-cyano-N-((1s,3s)-3-((5-(2-methylpyrimidin-4-yl)-1H-pyrrolo[2,3-b]pyridin-4-yl)amino)cyclobutyl)pyridine-2-sulfonamide], the concentration for half-maximal inhibition (IC50) on JAK1 was at most 10 nM; at JAK2 it was at most 10 nM; on JAK3 (a.a. 781-1124) it was 10 to 100 nM; on Tyk-2, 10 to 100 nM; in assay [1] it was 100 to 1000 nM; in assay [2] it was 100 to 1000 nM. In addition, in assay [3], the IC50 is above 1000 nM.

Regarding `CNC(=O)c1csc(-c2cnc3[nH]ccc3c2N[C@H]2C[C@@H](NS(=O)(=O)c3cccc(C#N)c3)C2)n1` [Example 21, 2-(4-(((1s,3s)-3-((3-cyanophenyl)sulfonamido)cyclobutyl)amino)-1H-pyrrolo[2,3-b]pyridin-5-yl)-N-methylthiazole-4-carboxamide], the IC50 is at most 10 nM on JAK1; at most 10 nM on JAK2; 10 to 100 nM on JAK3 (a.a. 781-1124); 10 to 100 nM on Tyk-2; 100 to 1000 nM in assay [1]; 100 to 1000 nM in assay [2]. The IC50 in assay [3] is above 1000 nM.

For `CCCS(=O)(=O)N[C@H]1C[C@@H](Nc2c(-c3nnc(C)s3)cnc3[nH]ccc23)C1` [Example 76, N-((1s,3s)-3-((5-(5-methyl-1,3,4-thiadiazol-2-yl)-1H-pyrrolo[2,3-b]pyridin-4-yl)amino)cyclobutyl)propane-1-sulfonamide], the half-maximal inhibitory concentration (IC50) at JAK1 lay within 10 to 100 nM; at JAK2, 10 to 100 nM; at JAK3 (a.a. 781-1124) it was 10 to 100 nM; at Tyk-2, 10 to 100 nM; in assay [1], 100 to 1000 nM; in assay [2], 100 to 1000 nM. For the same compound, in assay [3], the half-maximal inhibitory concentration (IC50) was above 1000 nM.

Regarding `Cc1nccc(-c2cnc3[nH]ccc3c2N[C@H]2C[C@@H](NS(=O)(=O)c3cccc(C#N)c3)C2)n1` [Example 84, 3-cyano-N-((1s,3s)-3-((5-(2-methylpyrimidin-4-yl)-1H-pyrrolo[2,3-b]pyridin-4-yl)amino)cyclobutyl)benzenesulfonamide], the IC50 on JAK1 was at most 10 nM; on JAK2 it was at most 10 nM; at JAK3 (a.a. 781-1124) it was at most 10 nM; on Tyk-2, at most 10 nM; in assay [1] it was at most 100 nM; in assay [2] it was 100 to 1000 nM. The IC50 in assay [3] is above 1000 nM.
